# Laboratory results from patent US5656460A, “α-glycosyl derivative of the catecholamine or its salt, and its preparation and uses” (Kabushiki Kaisha Hayashibara Seibutsu Kagaku Kenkyujo, priority 1992, dated 1997).
# Columns and labels:
# β-glucosidase = assay: Stability against hydrolysis by β-glucosidase; format: in vitro ADME
# Text: (6) Stability against hydrolysis
# [1] = Reducing reaction by the Nelson-Somogyi's method; format: physicochemical
# Text: The α-glucosyl methyldopa preparations [I] and [II] turn green on the anthrone-sulfuric acid reaction. The preparations are negative on a reducing reaction by the Nelson-Somogy's method;
# [2] = tested on: α-glucosidase (EC 3.2.1.20); assay: Stability against hydrolysis by α-glucosidase; format: in vitro ADME, pig; details: forms the catecholamine (methyldopa) and D-glucose
# Text: (6) Stability against hydrolysis (a) The α-glucosyl methyldopa preparations [I] and [II] are hydrolyzed by α-glucosidase (EC 3.2.1.20) specimen derived from pig liver to form methyldopa and D-glucose;
# [3] = Stability in aqueous solution (coloring degree at 400 nm relating to oxidation); format: physicochemical; details: 100 mM phosphate buffer pH 8.0, 25° C.; for Stability compared with intact methyldopa: up to 9 days; for Coloring degree at 400 nm: 100 ppm
# Procedure: Fifty ml aliquots of 100 mM phosphate buffer (pH 8.0) were distributed into 50 ml-flasks, added with the α-glucosyl methyldopa preparation [I] or [II] to give a concentration of 100 ppm, allowed to stand at 25° C., and sampled at a prescribed time interval to determine the stability of the preparation.
# Intact methyldopa was used as a control. Five ml solution was collected from each flask at a prescribed time interval, and subjected to the measurement of the coloring degree at 400 nm relating to the oxidation of methyldopa.
# 7-week-old dd mice = assay: Acute toxicity test (oral, mice); format: in vivo
# Procedure: The α-glucosyl methyldopa preparations [I] and [II] were tested for their acute toxicity by orally administering them to 7-week-old dd mice.
# Solubility in solvent = format: physicochemical
SMILES,Hydrolysis by β-glucosidase (β-glucosidase),Reducing reaction / reducing activity [1],Hydrolysis by α-glucosidase [2],Stability compared with intact methyldopa [3],Coloring degree at 400 nm ([3]; day 0),Coloring degree at 400 nm ([3]; day 1),Coloring degree at 400 nm ([3]; day 3),Coloring degree at 400 nm ([3]; day 5),Coloring degree at 400 nm ([3]; day 9),Acute toxicity: dose up to which no mouse died (7-week-old dd mice) [mg/kg],Solubility in benzen (Solubility in solvent),Solubility in chloroform (Solubility in solvent),Solubility in ethanol (Solubility in solvent),Solubility in ether (Solubility in solvent),Solubility in methanol (Solubility in solvent),Solubility in water (Solubility in solvent)
"CC(N)(Cc1ccc(O[C@H]2O[C@H](CO)[C@@H](O)[C@H](O)[C@H]2O)c(O)c1)C(=O)O (stereo partly drawn) [α-glucosyl methyldopa preparation [II], 3-[3-hydroxy-(4-α-D-glucopyranosyl)]-2-methylalanine]",not hydrolyzed,negative,hydrolyzed,much stabler than intact methyldopa,0.0,0.0,0.0,0.0,0.0,≥ 5000,insoluble,insoluble,slightly soluble,insoluble,slightly soluble,readily soluble
"CC(N)(Cc1ccc(O)c(O[C@H]2O[C@H](CO)[C@@H](O)[C@H](O)[C@H]2O)c1)C(=O)O (stereo partly drawn) [α-glucosyl methyldopa preparation [I], 3-[4-hydroxy-(3-α-D-glucopyranosyl)]-2-methylalanine]",not hydrolyzed,negative,hydrolyzed,much stabler than intact methyldopa,0.0,0.0,0.0,0.0,0.0,≥ 5000,insoluble,insoluble,slightly soluble,insoluble,slightly soluble,readily soluble
